From patent US20080039377A1, “Composition Comprising a Jnk Inhibitor and Cyclosporin” (Applied Research Systems ARS Holding N.V., priority 2004, published 2008)

Tested on: model of global ischemia in gerbils
Experiment: Neuroprotective effect of a JNK inhibitor combined with cyclosporin in a model of global ischemia in gerbils
Assay type: in vivo
Conditions: for neuroprotective effects (hippocampal damage assessed by histology): compared to vehicle and to JNK inhibitor alone
Protocol: In Vivo Assay: Neuroprotective Effect of a JNK Inhibitor Combined with Cyclosporin in a Model of Global Ischemia in Gerbils
The following assay aims at determining the neuroprotective effect of the test compositions in a model of global ischemia in gerbils, in vivo.
A total of 73 gerbils (60-80 g; obtained from Elevage Janvier, France) were provided. 4 groups, each consisting of 6-36 animals were formed: • Group 1 (n=36): The animals were administered (ip) a dose of 10 ml/kg of vehicle. • Group 2 (n=6): The animals were administered (ip) a dose of 15 mg/kg of cyclosporine. • Group 3 (n=8): The animals were administered (ip) a dose of 60 or 40 mg/kg of a JNK inhibitor according to formula (I) or (II). • Group 4 (n=7-8): The animals were administered (ip) a dose of the test composition containing 60 or 40 mg/kg of a JNK inhibitor according to formula (I) or (II) together with 15 mg/kg cyclosporine.
Surgery. Gerbils weighting 60-80 g were anaesthetized with 4% isoflurane (Baxter, Volketswil, Switzerland) in medical air, administered via facemask. The anaesthesia was then maintained using 3% isoflurane until the end of surgery. Bilateral common carotid arteries were dissected and occluded with bulldog clamps for 5 min.
Histology. Seven days after the onset of occlusion, the animals were killed by decapitation. The brains were frozen at −20° C. in 2-methylbutane and cut in 20 μm-thick sections in a cryocut (Microm HM 5000M, Walldorf, Germany). The sections were stained with cresyl violet acetate and the lesion in the hippocampus were scored within a 5-point scale: • Score 0: No loss of CA1 neurons; • Score 1: Weak damage of CA1 (CA1/Subiculum or CA1/CA3 border); • Score 2: Loss of CA1 neurons (<1/2); • Score 3: Loss of CA1 neurons (>1/2); and • Score 4: Total loss of CA1 neurons and expanding into other areas (CA3, Dentate gyrus, Cortex). The total score was obtained as the sum of scores in the right and left hemispheres.

N#CC(c1ccnc(NCCc2cccnc2)n1)c1nc2ccccc2s1 (centres unmarked) [Compound A, 1,3-benzothiazol-2-yl(2-{[2-(3-pyridinyl)ethyl]amino}-4-pyrimidinyl)acetonitrile]
neuroprotective effects (hippocampal damage assessed by histology) (JNK inhibitor 60 mg/kg ip with Cyclosporin 15 mg/kg ip): increases the neuroprotective effects
Histological score Mean ± SEM (Table I, Group 2: JNK inhibitor 0 mg/kg ip, Cyclosporine A 15 mg/kg ip, hippocampal lesion score (sum of both hemispheres, 0-4 each) 7 days after 5 min bilateral carotid occlusion): 6.0 ± 0.0
Histological score Mean ± SEM (Table I, Group 3: JNK inhibitor 60 mg/kg ip, Cyclosporine A 0 mg/kg, hippocampal lesion score 7 days after occlusion): 3.6 ± 0.8
Histological score Mean ± SEM (Table I, Group 4: JNK inhibitor 60 mg/kg ip together with Cyclosporine A 15 mg/kg ip, hippocampal lesion score 7 days after occlusion): 1.3 ± 0.6

CC#N.CCCCNC1CCN(S(=O)(=O)c2ccc(CNC(=O)c3ccc(Cl)cc3)s2)CC1 [Compound B, 4-chloro-N-[(5-{[4-(butylamino)piperidin-1-yl]sulfonyl}thien-2-yl)methyl]benzamide acetonitrile]
neuroprotective effects (hippocampal damage assessed by histology) (JNK inhibitor 40 mg/kg ip with Cyclosporin 15 mg/kg ip): increases the neuroprotective effects
Histological score Mean ± SEM (Table II, Group 2: JNK inhibitor 0 mg/kg ip, Cyclosporine A 15 mg/kg ip, hippocampal lesion score 7 days after occlusion): 6.0 ± 0.0
Histological score Mean ± SEM (Table II, Group 3: JNK inhibitor 60 mg/kg ip, Cyclosporine A 0 mg/kg, hippocampal lesion score 7 days after occlusion): 5.3 ± 0.5
Histological score Mean ± SEM (Table II, Group 4: JNK inhibitor 60 mg/kg ip together with Cyclosporine A 15 mg/kg ip, hippocampal lesion score 7 days after occlusion): 2.1 ± 0.6
